Reference: patent US20180064742A1, “PET IMAGING TRACER FOR IMAGING PROSTATE CANCER” (THE REGENTS OF THE UNIVERSITY OF CALIFORNIA, priority 2015, published 2018)

Tested on: tumors
Experiment: In vivo accumulation in tumors versus benign tissue, with tumor alkalinization models
From the text: Solid tumors are hypoxic with altered metabolism, resulting in secretion of acids into the extracellular matrix and lower relative pH, a feature associated with local invasion and metastasis. Therapeutic and diagnostic agents responsive to this microenvironment may improve tumor-specific delivery. In various embodiments, the invention reflects a general strategy whereby caged small-molecule drugs or imaging agents liberate their parent compounds in regions of low interstitial pH. In this manuscript, we present a new acid-labile prodrug method based on the glycosylamine linkage, and its application to a class of positron emission tomography (PET) imaging tracers, termed [^18F] fluorodeoxyglycosyl amines ([^18F] FDG amines). [^18F]FDG amines operate via a proposed two-step mechanism, in which an acid-labile precursor decomposes to form a common radiotracer, e.g., 2-deoxy-2-[18F]fluoro-D-glucose, which is subsequently accumulated by glycan, e.g., glucose, avid cells. […]
Imaging was performed using standard micro-positron emission tomography (microPET) techniques and data analysis. […] The resulting images are analyzed using open source Amide software (FIGS. 6, 13). For quantification of uptake in tissues, regions of interest (ROI) are drawn over tissues using the CT portion of the exam. […]

In the case of `OC[C@H]1OC(NCc2ccc(-c3ccccc3)cc2)[C@H]([18F])[C@@H](O)[C@@H]1O` (some centres unmarked), the “relative accumulation in tumors over benign tissue” value (in vivo) is reported as “greater relative accumulation in tumors over benign tissue” and the “effect of tumor alkalinization on tumor accumulation” value (sodium bicarbonate treatment, or overexpression of carbonic anhydrase) is reported as “could be attenuated upon tumor alkalinization”.
